Patent US10172858B2, “Combination pharmaceutical compositions and uses thereof” (Intellikine LLC, priority 2011, dated 2019)
Read-outs that look alike come from different tables or passages of the source.

How the values were obtained:
[1] = target: mTORC (Homo sapiens (Human), UniProt P42345); assay: mTORC in vitro IC50 (Table 2); type: biochemical
Method: The compounds described herein and any other mTor inhibitors known in the art can be tested against recombinant mTOR (Invitrogen) in an assay containing 50 mM HEPES, pH 7.5, 1 mM EGTA, 10 mM MgCl2, 2.5 mM, 0.01% Tween, 10 μM ATP (2.5 μCi of μ-32P-ATP), and 3 μg/mL BSA. Rat recombinant PHAS-1/4EBP1 (Calbiochem; 2 mg/mL) is used as a substrate. Reactions are terminated by spotting onto nitrocellulose, which is washed with 1M NaCl/1% phosphoric acid (approximately 6 times, 5-10 minutes each). Sheets are dried and the transferred radioactivity quantitated by phosphorimaging.
For instance, one can use Invitrogen's LanthaScreen™ Kinase assay to test the inhibitors of mTOR disclosed herein. This assay is a time resolved FRET platform that measures the phosphorylation of GFP labeled 4EBP1 by mTOR kinase. The kinase reaction is performed in a white 384 well microtitre plate. The total reaction volume is 20 ul per well and the reaction buffer composition is 50 mM HEPES pH7.5, 0.01% Polysorbate 20, 1 mM EGTA, 10 mM MnCl2, and 2 mM DTT. In the first step, each well receives 2 ul of test compound in 20% dimethylsulphoxide resulting in a 2% DMSO final concentration. Next, 8 ul of mTOR diluted in reaction buffer is added per well for a 60 ng/ml final concentration. To start the reaction, 10 ul of an ATP/GFP-4EBP1 mixture (diluted in reaction buffer) is added per well for a final concentration of 10 μM ATP and 0.5 μM GFP-4EBP1. The plate is sealed and incubated for 1 hour at room temperature. […] The plate is sealed, incubated for 1 hour at room temperature, and then read on a plate reader set up for LanthaScreen™ TR-FRET. Data is analyzed and IC50s are generated using GraphPad Prism 5.

[2] = target: PI3K γ (Homo sapiens (Human), UniProt P48736); assay: PI3K γ kinase assay; type: biochemical; details: Table 2
[3] = target: PI3K δ (Homo sapiens (Human), UniProt O00329); assay: PI3K δ kinase assay; type: biochemical; details: Table 2
Chain of PI3K δ (O00329 whole entry, species assumed): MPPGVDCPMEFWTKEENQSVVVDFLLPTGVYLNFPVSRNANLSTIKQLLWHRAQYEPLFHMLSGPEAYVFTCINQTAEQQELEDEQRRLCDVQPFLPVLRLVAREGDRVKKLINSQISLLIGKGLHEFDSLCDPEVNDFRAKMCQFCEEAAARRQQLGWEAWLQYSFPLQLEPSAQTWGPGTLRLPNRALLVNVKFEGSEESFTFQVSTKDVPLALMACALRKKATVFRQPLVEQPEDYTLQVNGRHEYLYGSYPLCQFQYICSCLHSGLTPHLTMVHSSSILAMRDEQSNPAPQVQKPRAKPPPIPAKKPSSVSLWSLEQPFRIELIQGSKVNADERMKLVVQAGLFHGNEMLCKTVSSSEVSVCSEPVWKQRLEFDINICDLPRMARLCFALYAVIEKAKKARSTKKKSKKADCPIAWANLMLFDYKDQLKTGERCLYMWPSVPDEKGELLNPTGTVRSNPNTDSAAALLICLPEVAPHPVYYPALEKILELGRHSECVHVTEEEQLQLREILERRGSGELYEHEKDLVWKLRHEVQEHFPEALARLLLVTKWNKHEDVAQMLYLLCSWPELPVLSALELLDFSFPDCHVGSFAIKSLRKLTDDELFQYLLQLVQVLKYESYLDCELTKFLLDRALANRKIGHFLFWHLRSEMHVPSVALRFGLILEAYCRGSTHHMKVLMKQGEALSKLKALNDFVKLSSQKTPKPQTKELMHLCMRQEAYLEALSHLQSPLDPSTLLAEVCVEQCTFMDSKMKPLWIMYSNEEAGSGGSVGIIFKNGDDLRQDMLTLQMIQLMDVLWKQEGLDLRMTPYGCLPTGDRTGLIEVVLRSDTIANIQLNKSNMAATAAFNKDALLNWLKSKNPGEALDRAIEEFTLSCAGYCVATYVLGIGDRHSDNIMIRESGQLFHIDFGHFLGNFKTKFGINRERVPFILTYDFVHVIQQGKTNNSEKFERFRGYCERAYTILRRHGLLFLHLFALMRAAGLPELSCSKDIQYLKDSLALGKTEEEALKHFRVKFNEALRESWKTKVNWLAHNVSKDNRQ
Chain of PI3K δ (P27986 whole entry partner, species assumed): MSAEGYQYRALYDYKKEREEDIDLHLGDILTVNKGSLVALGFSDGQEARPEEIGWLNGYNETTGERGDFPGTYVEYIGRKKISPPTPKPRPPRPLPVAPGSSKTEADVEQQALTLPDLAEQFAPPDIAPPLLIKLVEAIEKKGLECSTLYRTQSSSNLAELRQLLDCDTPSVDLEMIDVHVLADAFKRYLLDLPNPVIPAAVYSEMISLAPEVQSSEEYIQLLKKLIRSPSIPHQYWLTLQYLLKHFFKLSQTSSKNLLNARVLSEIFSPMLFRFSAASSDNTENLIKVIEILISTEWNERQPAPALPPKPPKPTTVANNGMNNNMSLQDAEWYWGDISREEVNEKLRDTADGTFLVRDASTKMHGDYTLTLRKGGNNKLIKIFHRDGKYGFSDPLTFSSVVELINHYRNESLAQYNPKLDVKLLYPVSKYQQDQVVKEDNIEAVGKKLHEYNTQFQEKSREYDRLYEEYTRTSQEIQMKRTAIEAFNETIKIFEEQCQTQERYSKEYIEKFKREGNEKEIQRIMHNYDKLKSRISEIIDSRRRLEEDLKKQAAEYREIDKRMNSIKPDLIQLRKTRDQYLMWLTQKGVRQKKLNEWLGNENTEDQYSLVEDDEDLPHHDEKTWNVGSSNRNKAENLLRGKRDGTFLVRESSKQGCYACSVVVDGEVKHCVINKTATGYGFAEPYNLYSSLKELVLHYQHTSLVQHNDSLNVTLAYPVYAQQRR

[4] = target: PI3K α (Homo sapiens (Human), UniProt P42336); assay: PI3K α kinase assay; type: biochemical
Chain of PI3K α (P42336 whole entry): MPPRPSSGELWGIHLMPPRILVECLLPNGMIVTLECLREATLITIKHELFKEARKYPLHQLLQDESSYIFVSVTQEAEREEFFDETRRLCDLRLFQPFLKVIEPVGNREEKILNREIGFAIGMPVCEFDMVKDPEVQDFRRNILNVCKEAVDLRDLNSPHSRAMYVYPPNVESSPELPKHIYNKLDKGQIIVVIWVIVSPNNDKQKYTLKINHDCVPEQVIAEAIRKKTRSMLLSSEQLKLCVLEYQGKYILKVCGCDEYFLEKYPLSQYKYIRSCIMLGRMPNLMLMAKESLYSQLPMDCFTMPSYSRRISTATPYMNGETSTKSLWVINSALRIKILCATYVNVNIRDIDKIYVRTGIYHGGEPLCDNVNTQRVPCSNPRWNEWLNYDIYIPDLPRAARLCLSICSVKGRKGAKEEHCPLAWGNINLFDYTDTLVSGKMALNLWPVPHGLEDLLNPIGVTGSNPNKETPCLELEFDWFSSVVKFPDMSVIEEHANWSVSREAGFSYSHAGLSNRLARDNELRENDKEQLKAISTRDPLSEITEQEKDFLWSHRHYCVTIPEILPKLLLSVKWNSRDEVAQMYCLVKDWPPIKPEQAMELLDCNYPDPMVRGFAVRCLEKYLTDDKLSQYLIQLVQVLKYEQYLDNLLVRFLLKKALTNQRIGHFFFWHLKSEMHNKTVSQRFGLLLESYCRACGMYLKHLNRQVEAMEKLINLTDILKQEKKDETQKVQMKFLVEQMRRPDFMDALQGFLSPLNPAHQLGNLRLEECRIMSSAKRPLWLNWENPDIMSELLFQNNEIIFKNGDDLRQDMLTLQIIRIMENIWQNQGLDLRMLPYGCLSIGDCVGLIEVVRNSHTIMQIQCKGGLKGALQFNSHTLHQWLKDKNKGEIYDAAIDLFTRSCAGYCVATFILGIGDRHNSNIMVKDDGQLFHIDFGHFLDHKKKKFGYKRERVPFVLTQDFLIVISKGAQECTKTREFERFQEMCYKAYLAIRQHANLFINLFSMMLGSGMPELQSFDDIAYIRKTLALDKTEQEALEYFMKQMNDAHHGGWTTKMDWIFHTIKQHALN
Chain of PI3K α (P27986 whole entry partner): as the sequence (P27986 whole entry partner, species assumed) above

[5] = tested on: PC3; assay: PC3 tumor cell line proliferation assay; type: cell-based; details: Homo sapiens, PC-3; Table 2, in vitro IC50
Method: The assay is performed in a 96 well microtiter plate using Alamar Blue reduction. […] A compound disclosed herein is diluted in Tumor Cell Media and added in a 10 ul volume. […] A volume of 10 uL of Alamar Blue reagent is added to each well and plates are incubated for 3 hours at 37 C and 5% CO2. Alamar Blue fluoresce is read at 560Ex/590Em, and IC50 values are calculated using GraphPad Prism 5.

[6] = target: PI3K β (Homo sapiens (Human), UniProt P42338); assay: PI3K β kinase assay; type: biochemical; details: Table 2
Chain of PI3K β (P42338 whole entry, species assumed): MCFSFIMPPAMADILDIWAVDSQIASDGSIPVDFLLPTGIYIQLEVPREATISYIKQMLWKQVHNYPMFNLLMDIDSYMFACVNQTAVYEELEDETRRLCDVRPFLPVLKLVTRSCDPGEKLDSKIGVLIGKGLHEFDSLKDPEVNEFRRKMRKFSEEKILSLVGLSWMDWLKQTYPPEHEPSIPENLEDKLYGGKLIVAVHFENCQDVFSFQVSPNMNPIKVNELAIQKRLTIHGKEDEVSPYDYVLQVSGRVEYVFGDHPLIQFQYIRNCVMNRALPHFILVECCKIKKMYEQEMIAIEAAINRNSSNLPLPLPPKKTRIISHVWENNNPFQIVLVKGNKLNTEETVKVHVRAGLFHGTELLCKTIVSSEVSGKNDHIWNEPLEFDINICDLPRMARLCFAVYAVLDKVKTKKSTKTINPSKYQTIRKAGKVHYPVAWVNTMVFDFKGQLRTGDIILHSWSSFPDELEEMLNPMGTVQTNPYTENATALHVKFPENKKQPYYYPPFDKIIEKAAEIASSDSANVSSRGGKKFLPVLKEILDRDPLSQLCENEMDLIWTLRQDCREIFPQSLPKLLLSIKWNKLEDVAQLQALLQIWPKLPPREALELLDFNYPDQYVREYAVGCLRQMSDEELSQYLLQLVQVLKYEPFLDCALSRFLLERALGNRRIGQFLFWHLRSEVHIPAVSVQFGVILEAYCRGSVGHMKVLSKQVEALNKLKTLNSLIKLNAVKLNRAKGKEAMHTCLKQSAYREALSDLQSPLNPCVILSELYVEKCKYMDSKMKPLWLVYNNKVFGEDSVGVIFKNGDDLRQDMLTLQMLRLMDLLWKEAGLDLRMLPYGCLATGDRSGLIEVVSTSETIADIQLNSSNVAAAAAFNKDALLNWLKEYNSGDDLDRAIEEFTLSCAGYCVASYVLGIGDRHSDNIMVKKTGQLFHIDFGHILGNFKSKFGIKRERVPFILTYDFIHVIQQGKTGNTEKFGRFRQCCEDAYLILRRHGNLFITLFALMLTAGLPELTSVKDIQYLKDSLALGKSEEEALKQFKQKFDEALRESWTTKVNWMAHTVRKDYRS
Chain of PI3K β (P27986 whole entry partner, species assumed): as the sequence (P27986 whole entry partner, species assumed) above

[7] = tested on: pS6, cleaved PARP; assay: Western blot of pS6 and cleaved PARP (FIG. 6); type: cell-based; details: paclitaxel alone
[8] = tested on: HEC59 (paclitaxel resistant cell line) cells; assay: Growth of HEC59 cells (FIG. 9A); type: cell-based
[9] = tested on: Endometrial cancer cells containing mutations in PTEN and FGFR2; assay: Combination therapy in a tumor mouse model, tumor volume; type: in vivo, mice; details: Paclitaxel alone 20 mg/kg Q1W intravenous
From the text: Endometrial cancer cells containing mutations in PTEN and FGFR2 were implanted into mice. Mice having tumor volumes of approximately 150 mm^3 were grouped by treatment schedule, with the start of treatment designated as day 0. Control mice received no treatment.
In a further example, mice were implanted with endometrial cancer cells as above. Mice having tumor volumes of approximately 150 mm^3 were grouped by treatment schedule, with the start of treatment designated as day 0. Control mice received no treatment.

[10] = tested on: mTORC1-dependent NRDG1 phosphorylation; assay: Western blot of NRDG1 phosphorylation (FIG. 4B); type: cell-based

Chain of PI3K γ (P48736 whole entry, species assumed): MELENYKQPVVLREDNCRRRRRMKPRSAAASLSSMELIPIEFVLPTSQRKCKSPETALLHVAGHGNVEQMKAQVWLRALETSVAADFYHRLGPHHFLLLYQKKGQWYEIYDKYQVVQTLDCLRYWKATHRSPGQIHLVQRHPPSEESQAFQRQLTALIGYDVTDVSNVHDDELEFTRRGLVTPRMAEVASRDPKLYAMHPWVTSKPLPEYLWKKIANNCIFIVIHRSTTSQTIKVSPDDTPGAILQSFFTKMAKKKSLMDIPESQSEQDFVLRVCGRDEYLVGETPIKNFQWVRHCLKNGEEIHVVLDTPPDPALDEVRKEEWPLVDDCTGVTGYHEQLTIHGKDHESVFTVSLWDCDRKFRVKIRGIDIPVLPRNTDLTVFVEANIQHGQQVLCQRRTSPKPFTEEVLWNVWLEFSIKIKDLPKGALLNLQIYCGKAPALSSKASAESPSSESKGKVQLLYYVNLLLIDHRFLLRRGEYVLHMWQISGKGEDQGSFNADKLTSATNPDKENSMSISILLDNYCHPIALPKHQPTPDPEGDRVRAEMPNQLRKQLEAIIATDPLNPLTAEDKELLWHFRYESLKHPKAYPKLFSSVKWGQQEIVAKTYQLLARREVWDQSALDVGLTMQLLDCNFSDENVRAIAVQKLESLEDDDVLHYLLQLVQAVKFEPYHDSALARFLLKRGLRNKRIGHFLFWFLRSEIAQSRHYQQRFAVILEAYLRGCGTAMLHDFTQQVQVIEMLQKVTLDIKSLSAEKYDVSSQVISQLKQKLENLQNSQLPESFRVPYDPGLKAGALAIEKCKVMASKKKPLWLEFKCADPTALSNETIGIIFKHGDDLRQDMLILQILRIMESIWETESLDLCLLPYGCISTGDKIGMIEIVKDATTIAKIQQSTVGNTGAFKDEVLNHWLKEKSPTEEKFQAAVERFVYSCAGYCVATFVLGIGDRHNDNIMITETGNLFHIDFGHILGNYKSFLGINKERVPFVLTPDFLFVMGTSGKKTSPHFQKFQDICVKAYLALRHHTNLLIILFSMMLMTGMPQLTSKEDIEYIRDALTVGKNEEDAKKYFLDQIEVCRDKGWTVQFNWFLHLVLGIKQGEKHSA

Structure (SMILES): Nc1ncnc2c1c(-c1cc3cccc(O)c3[nH]1)nn2C1CCN(C(=O)C2CC2)CC1 [Compound 41]
- IC50 [1]: < 10 nM
- IC50 [2]: < 50 nM
- IC50 [3]: > 500 nM
- IC50 ([4]; Table 2): > 500 nM
- IC50 [5]: > 500 nM
- IC50 [6]: > 500 nM

Structure (SMILES): CC(=O)O[C@H]1C(=O)[C@@]2(C)[C@H]([C@H](OC(=O)c3ccccc3)[C@]3(O)C[C@H](OC(=O)[C@H](O)[C@@H](NC(=O)c4ccccc4)c4ccccc4)C(C)=C1C3(C)C)[C@]1(OC(C)=O)CO[C@@H]1C[C@@H]2O [Paclitaxel]
- pS6 level [7]: induction of pS6
- inhibition of the growth of HEC59 cells [8]: partial inhibition
- increase in average tumor volume by day 22 [9]: 17%
- average tumor volume by day 22 ([9]; from about 150 mm^3 at day 0): about 175 mm^3

Structure (SMILES): CC(=O)N1CCC(n2nc(-c3cc4cc(O)cc(Cl)c4[nH]3)c3c(N)ncnc32)CC1 [Compound 70]
- IC50 [1]: < 5 nM
- IC50 [2]: < 100 nM
- IC50 [3]: < 25 nM
- IC50 ([4]; Table 2): < 500 nM
- IC50 [6]: > 500 nM

Structure (SMILES): CO[C@H]1C[C@@H]2CC[C@@H](C)[C@@](O)(O2)C(=O)C(=O)N2CCCC[C@H]2C(=O)O[C@H]([C@H](C)C[C@@H]2CC[C@@H](O)[C@H](OC)C2)CC(=O)[C@H](C)/C=C(\C)[C@@H](O)[C@@H](OC)C(=O)[C@H](C)C[C@H](C)/C=C/C=C/C=C/1C [rapamycin]
- sensitivity of mTORC1-dependent NRDG1 phosphorylation [10]: not

Structure (SMILES): COc1ccc(Cl)c2cc(-c3nn(C4CCOCC4)c4ncnc(N)c34)[nH]c12 [Compound 61]
- IC50 [1]: < 25 nM
- IC50 [2]: > 500 nM
- IC50 [3]: > 500 nM
- IC50 ([4]; Table 2): > 500 nM
- IC50 [6]: > 500 nM

Structure (SMILES): CC(=O)N1CCC(n2nc(-c3cc4ccc(O)cc4[nH]3)c3c(N)ncnc32)CC1 [Compound 65]
- IC50 [1]: < 10 nM
- IC50 [2]: < 25 nM
- IC50 [3]: < 25 nM
- IC50 ([4]; Table 2): < 50 nM
- IC50 [6]: > 500 nM

Structure (SMILES): Nc1ncnc2c1c(-c1cc3c(Cl)cccc3[nH]1)nn2C1CCOCC1 [Compound 48]
- IC50 [1]: < 50 nM
- IC50 [2]: > 500 nM
- IC50 [3]: > 500 nM
- IC50 ([4]; Table 2): > 500 nM
- IC50 [6]: > 500 nM

Structure (SMILES): COc1cccc2cc(-c3nn(C4CCOCC4)c4ncnc(N)c34)[nH]c12 [Compound 63]
- IC50 [1]: < 5 nM
- IC50 [2]: < 25 nM
- IC50 [3]: < 25 nM
- IC50 [4]: < 500 nM
- IC50 [6]: > 500 nM

Structure (SMILES): CC(C)n1nc(-c2cc3cccc(Cl)c3[nH]2)c2c(N)ncnc21 [Compound 50]
- IC50 [1]: < 50 nM
- IC50 [2]: < 500 nM
- IC50 [3]: < 500 nM
- IC50 ([4]; Table 2): > 500 nM
- IC50 [6]: > 500 nM

Structure (SMILES): Nc1ncnc2c1c(-c1cc3cc(O)ccc3[nH]1)nn2C1CC(N2CCOCC2)C1 (stereo not shown) [Compound 49]
- IC50 [1]: < 10 nM
- IC50 [2]: < 500 nM
- IC50 [3]: < 500 nM
- IC50 [4]: > 500 nM
- IC50 [6]: > 500 nM
